Laboratory results: patent US9585823B2, “Personal care compositions comprising a multi-active system for down regulating cytokines irritation” (The Gillette Company, priority 2010, dated 2017)

System: hTERT keratinocytes
Assay type: cell-based
Method: To ensure proper levels of the biological active molecules for the in vitro study, dilution studies were conducted and ATP was analyzed for the highest non-cytotoxic concentration. Olivem 460 (lot LG0833 from B&T, Milan Italy) at a level of 0.000156% and SymRelief (from Symrise) at a level of 0.0625% were determined to be appropriate respective concentrations for this study. ATP analysis is described below.
ATP analysis was conducted using Cell Titer-Glo. The CellTiter-Glo Luminescent Cell Viability Assay was obtained from Promega Corporation (Madison, Wis.). This assay is a homogeneous method for determining the number of viable cells in culture based on quantitation of ATP present, signaling the presence of metabolically active cells. After the final treatment and supernatants collected, the CellTiter-Glo reagent was added. The reagent was then transferred to a BD Falcon (Franklin Lakes, N.J.) Microtest 96-well Assay Plate (black, flat bottom, reference 353945, lot 041151). Luminescence was read on a Perkin Elmer Fluorimeter (Wallac Envision 2101 Multilabel Reader). Relative luminescence units were plotted in percent control versus treatment concentration.

Substance	highest non-cytotoxic concentration (level determined appropriate for the study) [%]
Bisabolol (and) Zingiber Officinale Root Extract [SymRelief]	0.0625
Sodium PEG-7 Olive Oil Carboxylate [Olivem 460]	0.000156
